Source: PubChem BioAssay (NCI)
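96-well plates; 48 h exposure; 5 concentrations. Endpoints by linear interpolation between flanking doses. Not reached: highest tested concentration assigned. TGI denotes the concentration required for complete inhibition of growth.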

Columns and labels:
Assay in all cases: growth of human tumour cells (NCI), 48 h
786-0 renal = tested on: 786-0 renal
A498 renal = tested on: A498 renal
A549 NSCLC = tested on: A549 NSCLC
ACHN renal = tested on: ACHN renal
CCRF-CEM leukemia = tested on: CCRF-CEM leukemia
COLO 205 colon = tested on: COLO 205 colon
DU-145 prostate = tested on: DU-145 prostate
EKVX NSCLC = tested on: EKVX NSCLC
HCC-2998 colon = tested on: HCC-2998 colon
HCT-116 colon = tested on: HCT-116 colon
HCT-15 colon = tested on: HCT-15 colon
HL-60(TB) leukemia = tested on: HL-60(TB) leukemia
HOP-62 NSCLC = tested on: HOP-62 NSCLC
HOP-92 NSCLC = tested on: HOP-92 NSCLC
HS 578T breast = tested on: HS 578T breast
HT29 colon = tested on: HT29 colon
K-562 leukemia = tested on: K-562 leukemia
KM12 colon = tested on: KM12 colon
M14 melanoma = tested on: M14 melanoma
MALME-3M melanoma = tested on: MALME-3M melanoma
MCF7 breast = tested on: MCF7 breast
MDA-MB-231 breast = tested on: MDA-MB-231 breast
MDA-MB-435 = tested on: MDA-MB-435
MDA-N = tested on: MDA-N
MOLT-4 leukemia = tested on: MOLT-4 leukemia
NCI-H226 lung = tested on: NCI-H226 lung
NCI-H23 lung = tested on: NCI-H23 lung
NCI-H522 lung = tested on: NCI-H522 lung
OVCAR-3 ovarian = tested on: OVCAR-3 ovarian
OVCAR-4 ovarian = tested on: OVCAR-4 ovarian
OVCAR-5 ovarian = tested on: OVCAR-5 ovarian
OVCAR-8 ovarian = tested on: OVCAR-8 ovarian
PC-3 prostate = tested on: PC-3 prostate
RPMI-8226 leukemia = tested on: RPMI-8226 leukemia
RXF 393 renal = tested on: RXF 393 renal
SF-268 CNS = tested on: SF-268 CNS
SF-539 CNS = tested on: SF-539 CNS
SK-MEL-2 melanoma = tested on: SK-MEL-2 melanoma
SK-MEL-28 melanoma = tested on: SK-MEL-28 melanoma
SK-MEL-5 melanoma = tested on: SK-MEL-5 melanoma
SN12C renal = tested on: SN12C renal
SNB-19 CNS = tested on: SNB-19 CNS
SR leukemia = tested on: SR leukemia
SW-620 colon = tested on: SW-620 colon
T-47D breast = tested on: T-47D breast
TK-10 renal = tested on: TK-10 renal
U251 CNS = tested on: U251 CNS
UACC-62 melanoma = tested on: UACC-62 melanoma
UO-31 renal = tested on: UO-31 renal
CAKI-1 renal = tested on: CAKI-1 renal
IGROV1 ovarian = tested on: IGROV1 ovarian
LOX IMVI melanoma = tested on: LOX IMVI melanoma
NCI-H460 lung = tested on: NCI-H460 lung
NCI/ADR-RES ovarian = tested on: NCI/ADR-RES ovarian
SF-295 CNS = tested on: SF-295 CNS
SK-OV-3 ovarian = tested on: SK-OV-3 ovarian
SNB-75 CNS = tested on: SNB-75 CNS
UACC-257 melanoma = tested on: UACC-257 melanoma

With `CC(C)C1=CC23CCC4C(C)(C(=O)O)CCCC4(C)C2CC1C1C(=O)N(c2ccc(Cc4ccc(N5C(=O)C6C7CC8C9(C)CCCC(C)(C(=O)O)C9CCC8(C=C7C(C)C)C6C5=O)cc4)cc2)C(=O)C13` (stereo unspecified) the TGI (786-0 renal) was 22.8 µM, the TGI (A498 renal) was 22.5 µM and the TGI (A549 NSCLC) was 15.7 µM. The TGI (ACHN renal) was 17.8 µM, the TGI (CCRF-CEM leukemia) was 38.5 µM and the TGI (COLO 205 colon) was 26.4 µM. The TGI (DU-145 prostate) was 25.3 µM, the TGI (EKVX NSCLC) was 24.9 µM and the TGI (HCC-2998 colon) was 21.7 µM. It also gave a TGI (HCT-116 colon) of 19.1 µM, a TGI (HCT-15 colon) of 24.5 µM and a TGI (HL-60(TB) leukemia) of 63.2 µM. It also gave a TGI (HOP-62 NSCLC) of 25.2 µM, a TGI (HOP-92 NSCLC) of 36.8 µM and a TGI (HS 578T breast) of 32.8 µM. It also gave a TGI (HT29 colon) of 8.58 µM, a TGI (K-562 leukemia) of over 100 µM and a TGI (KM12 colon) of 20.2 µM. It also gave a TGI (M14 melanoma) of 22.1 µM, a TGI (MALME-3M melanoma) of 30.4 µM and a TGI (MCF7 breast) of 18.9 µM. The TGI (MDA-MB-231 breast) was 58.8 µM, the TGI (MDA-MB-435) was 13.3 µM and the TGI (MDA-N) was 24.8 µM. The TGI (MOLT-4 leukemia) was 32.9 µM, the TGI (NCI-H226 lung) was 28.4 µM and the TGI (NCI-H23 lung) was 10.9 µM. It also gave a TGI (NCI-H522 lung) of 24.1 µM, a TGI (OVCAR-3 ovarian) of 22.6 µM and a TGI (OVCAR-4 ovarian) of 33.2 µM. It also gave a TGI (OVCAR-5 ovarian) of 35.8 µM, a TGI (OVCAR-8 ovarian) of 22.5 µM and a TGI (PC-3 prostate) of 15.7 µM. It also gave a TGI (RPMI-8226 leukemia) of over 100 µM, a TGI (RXF 393 renal) of 27.4 µM and a TGI (SF-268 CNS) of 27.4 µM. The TGI (SF-539 CNS) was 20.1 µM, the TGI (SK-MEL-2 melanoma) was 26.4 µM and the TGI (SK-MEL-28 melanoma) was 24.9 µM. It also gave a TGI (SK-MEL-5 melanoma) of 24.8 µM, a TGI (SN12C renal) of 25.3 µM and a TGI (SNB-19 CNS) of 17.9 µM. It also gave a TGI (SR leukemia) of 28 µM, a TGI (SW-620 colon) of 31.2 µM and a TGI (T-47D breast) of 42.6 µM. It also gave a TGI (TK-10 renal) of 29.7 µM, a TGI (U251 CNS) of 14.4 µM and a TGI (UACC-62 melanoma) of 29.7 µM. For the same compound, the TGI (UO-31 renal) was 31.3 µM.

Compound `CCOC(=O)C(C#N)C1=CC(=O)C(=O)c2ccc(OC)cc21` (stereo unspecified) has a TGI (786-0 renal) of 64.9 µM, a TGI (A498 renal) of 58.9 µM and a TGI (A549 NSCLC) of 41 µM. For the same compound, the TGI (ACHN renal) was 30.9 µM, the TGI (CAKI-1 renal) was 72.2 µM and the TGI (CCRF-CEM leukemia) was over 100 µM. For the same compound, the TGI (COLO 205 colon) was 32.3 µM, the TGI (DU-145 prostate) was 38.2 µM and the TGI (EKVX NSCLC) was 51.8 µM. It also gave a TGI (HCC-2998 colon) of 29.8 µM, a TGI (HCT-116 colon) of 44.8 µM and a TGI (HCT-15 colon) of 59.8 µM. It also gave a TGI (HL-60(TB) leukemia) of over 100 µM, a TGI (HOP-62 NSCLC) of 51.7 µM and a TGI (HS 578T breast) of 53.4 µM. The TGI (HT29 colon) was 94.2 µM, the TGI (IGROV1 ovarian) was 35.2 µM and the TGI (K-562 leukemia) was over 100 µM. The TGI (KM12 colon) was 41.3 µM, the TGI (LOX IMVI melanoma) was 40.7 µM and the TGI (M14 melanoma) was 29.8 µM. The TGI (MALME-3M melanoma) was 31 µM, the TGI (MCF7 breast) was 31.4 µM and the TGI (MDA-MB-231 breast) was 29.1 µM. It also gave a TGI (MDA-MB-435) of 35.4 µM, a TGI (MDA-N) of 17.1 µM and a TGI (MOLT-4 leukemia) of over 100 µM. It also gave a TGI (NCI-H226 lung) of 49.7 µM, a TGI (NCI-H23 lung) of 30.6 µM and a TGI (NCI-H460 lung) of 58.6 µM. The TGI (NCI-H522 lung) was 18.7 µM, the TGI (NCI/ADR-RES ovarian) was 51.3 µM and the TGI (OVCAR-3 ovarian) was 47.5 µM. It also gave a TGI (OVCAR-4 ovarian) of 33.7 µM, a TGI (OVCAR-5 ovarian) of 40.5 µM and a TGI (OVCAR-8 ovarian) of 54.4 µM. It also gave a TGI (PC-3 prostate) of 77 µM, a TGI (RPMI-8226 leukemia) of over 100 µM and a TGI (RXF 393 renal) of 47.5 µM. It also gave a TGI (SF-268 CNS) of over 100 µM, a TGI (SF-295 CNS) of 58.3 µM and a TGI (SF-539 CNS) of 33.5 µM. The TGI (SK-MEL-2 melanoma) was 28.1 µM, the TGI (SK-MEL-28 melanoma) was 41.4 µM and the TGI (SK-MEL-5 melanoma) was 28.8 µM. For the same compound, the TGI (SK-OV-3 ovarian) was 56.7 µM, the TGI (SN12C renal) was 33.8 µM and the TGI (SNB-19 CNS) was 54.8 µM. The TGI (SNB-75 CNS) was 58.5 µM, the TGI (SR leukemia) was over 100 µM and the TGI (SW-620 colon) was 33.3 µM. The TGI (T-47D breast) was 34.5 µM, the TGI (TK-10 renal) was over 100 µM and the TGI (U251 CNS) was 72.5 µM. The TGI (UACC-257 melanoma) was 31.1 µM, the TGI (UACC-62 melanoma) was 28.5 µM and the TGI (UO-31 renal) was 32 µM.
